Measurements: PubChem BioAssay AID1963449 (Molecular Pharmacology Branch, DTP, NCI, 2024)
Values joined by “and” are separate entries in the source; they are usually repeats but may differ in a detail not shown here. Identical values can stand only once.

System: 596521-263-R-J1-PDC complex spheroid growth
Assay: Anticancer human tumor 596521-263-R-J1-PDC patient-derived soft tissue sarcoma cell line growth inhibition [Asc]
Conditions: for viability, T/C: stronger effect = lower value
Procedure, shortened: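 Spheroid model: tumor line + HUVEC + hMSC. Single agents and combinations; top conc. at/near clinical Cmax (10 microM if undetermined), half-log dilutions. DMSO stocks at 800-fold test concentration.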

[1] = curve of first compound, second compound 0.0316 µM
[2] = curve of first compound, second compound 0.1 µM
[3] = curve of first compound, second compound 0.316 µM
[4] = curve of first compound, second compound 1 µM
[5] = curve of first compound, second compound 3.16 µM
[6] = curve of first compound, second compound 10 µM
[7] = second compound 0.0316 µM, first compound 0.0316 µM
[8] = second compound 0.0316 µM, first compound 0.1 µM
[9] = second compound 0.1 µM, first compound 0.0316 µM
[10] = second compound 0.1 µM, first compound 0.1 µM
[11] = second compound 0.316 µM, first compound 0.0316 µM
[12] = second compound 0.316 µM, first compound 0.1 µM
[13] = second compound 1 µM, first compound 0.0316 µM
[14] = second compound 1 µM, first compound 0.1 µM
[15] = second compound 3.16 µM, first compound 0.0316 µM
[16] = second compound 3.16 µM, first compound 0.1 µM
[17] = second compound 10 µM, first compound 0.0316 µM
[18] = second compound 10 µM, first compound 0.1 µM
[19] = second compound 0.0316 µM, first compound 0.316 µM
[20] = second compound 0.0316 µM, first compound 1 µM
[21] = second compound 0.0316 µM, first compound 3.16 µM
[22] = second compound 0.0316 µM, first compound 10 µM
[23] = second compound 0.1 µM, first compound 0.316 µM
[24] = second compound 0.1 µM, first compound 1 µM
[25] = second compound 0.1 µM, first compound 3.16 µM
[26] = second compound 0.1 µM, first compound 10 µM
[27] = second compound 0.316 µM, first compound 0.316 µM
[28] = second compound 0.316 µM, first compound 1 µM
[29] = second compound 0.316 µM, first compound 3.16 µM
[30] = second compound 0.316 µM, first compound 10 µM
[31] = second compound 1 µM, first compound 0.316 µM
[32] = second compound 1 µM, first compound 1 µM
[33] = second compound 1 µM, first compound 3.16 µM
[34] = second compound 1 µM, first compound 10 µM
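Further: spheroids exposed to compounds for 7 days.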

## Cn1ncnc1[C@H]1c2n[nH]c(=O)c3cc(F)cc(c23)N[C@@H]1c1ccc(F)cc1 + Cc1c(S(C)(=O)=O)c(-c2cc(F)cc(N3CCN(c4ccc(NS(=O)(=O)c5ccc(NC(CCN6CCC(C(=O)OCCCP(=O)(O)O)CC6)CSc6ccccc6)c(S(=O)(=O)C(F)(F)F)c5)cc4)CC3)c2)c(-c2ccc(Cl)cc2)n1C(C)C
[1]
  IC50: > 100 nM
[2]
  IC50: > 100 nM
[3]
  IC50: > 100 nM
[4]
  IC50: > 100 nM
[5]
  IC50: 38.5 nM
[6]
  IC50: 1.07 nM
Second compound 0.0316 µM, first compound 0.000316 µM
  viability, T/C: 97.5%
Second compound 0.0316 µM, first compound 0.001 µM
  viability, T/C: 112%
Second compound 0.0316 µM, first compound 0.00316 µM
  viability, T/C: 81.9%
Second compound 0.0316 µM, first compound 0.01 µM
  viability, T/C: 94.1%
[7]
  viability, T/C: 87.4%
[8]
  viability, T/C: 79.3%
Second compound 0.1 µM, first compound 0.000316 µM
  viability, T/C: 90.6%
Second compound 0.1 µM, first compound 0.001 µM
  viability, T/C: 97.8%
Second compound 0.1 µM, first compound 0.00316 µM
  viability, T/C: 94.3%
Second compound 0.1 µM, first compound 0.01 µM
  viability, T/C: 81.6%
[9]
  viability, T/C: 78.5%
[10]
  viability, T/C: 74.5%
Second compound 0.316 µM, first compound 0.000316 µM
  viability, T/C: 88.5%
Second compound 0.316 µM, first compound 0.001 µM
  viability, T/C: 86.6%
Second compound 0.316 µM, first compound 0.00316 µM
  viability, T/C: 77.7%
Second compound 0.316 µM, first compound 0.01 µM
  viability, T/C: 82.8%
[11]
  viability, T/C: 75.5%
[12]
  viability, T/C: 73.4%
Second compound 1 µM, first compound 0.000316 µM
  viability, T/C: 90.9%
Second compound 1 µM, first compound 0.001 µM
  viability, T/C: 85.3%
Second compound 1 µM, first compound 0.00316 µM
  viability, T/C: 85.2%
Second compound 1 µM, first compound 0.01 µM
  viability, T/C: 65%
[13]
  viability, T/C: 68.4%
[14]
  viability, T/C: 61.1%
Second compound 3.16 µM, first compound 0.000316 µM
  viability, T/C: 58.7%
Second compound 3.16 µM, first compound 0.001 µM
  viability, T/C: 69.5%
Second compound 3.16 µM, first compound 0.00316 µM
  viability, T/C: 57.3%
Second compound 3.16 µM, first compound 0.01 µM
  viability, T/C: 57.4%
[15]
  viability, T/C: 52.6%
[16]
  viability, T/C: 40.2%
Second compound 10 µM, first compound 0.000316 µM
  viability, T/C: 54.1%
Second compound 10 µM, first compound 0.001 µM
  viability, T/C: 50.3%
Second compound 10 µM, first compound 0.00316 µM
  viability, T/C: 43.6%
Second compound 10 µM, first compound 0.01 µM
  viability, T/C: 42%
[17]
  viability, T/C: 42%
[18]
  viability, T/C: 28.9%

## C#Cc1c(F)ccc2cc(O)cc(-c3ncc4c(N5CC6CCC(C5)N6)nc(OCC56CCCN5CC(F)C6)nc4c3F)c12 (stereo not drawn) + CNC(C)C(=O)NC1CN(S(=O)(=O)c2cccc(S(=O)(=O)N3CCC4CCC(C(=O)NC(c5ccccc5)c5ccccc5)N4C(=O)C(NC(=O)C(C)NC)C3)c2)CCC2CCC(C(=O)NC(c3ccccc3)c3ccccc3)N2C1=O
Curve of first compound, second compound 0.00316 µM
  IC50: > 10000 nM
Curve of first compound, second compound 0.01 µM
  IC50: > 10000 nM
[1]
  IC50: > 10000 nM
[2]
  IC50: > 10000 nM
[3]
  IC50: > 10000 nM
[4]
  IC50: > 10000 nM
Second compound 0.00316 µM, first compound 0.0316 µM
  viability, T/C: 93.7%
Second compound 0.00316 µM, first compound 0.1 µM
  viability, T/C: 89.4%
Second compound 0.00316 µM, first compound 0.316 µM
  viability, T/C: 87.3%
Second compound 0.00316 µM, first compound 1 µM
  viability, T/C: 105%
Second compound 0.00316 µM, first compound 3.16 µM
  viability, T/C: 94.6%
Second compound 0.00316 µM, first compound 10 µM
  viability, T/C: 81.8%
Second compound 0.01 µM, first compound 0.0316 µM
  viability, T/C: 99.4%
Second compound 0.01 µM, first compound 0.1 µM
  viability, T/C: 106%
Second compound 0.01 µM, first compound 0.316 µM
  viability, T/C: 86.7%
Second compound 0.01 µM, first compound 1 µM
  viability, T/C: 92.9%
Second compound 0.01 µM, first compound 3.16 µM
  viability, T/C: 97.1%
Second compound 0.01 µM, first compound 10 µM
  viability, T/C: 64.4%
[7]
  viability, T/C: 90.2%
[8]
  viability, T/C: 87.1%
[19]
  viability, T/C: 99.6%
[20]
  viability, T/C: 102%
[21]
  viability, T/C: 90.6%
[22]
  viability, T/C: 61.1%
[9]
  viability, T/C: 91.5%
[10]
  viability, T/C: 70.6%
[23]
  viability, T/C: 83.5%
[24]
  viability, T/C: 80%
[25]
  viability, T/C: 84%
[26]
  viability, T/C: 72.3%
[11]
  viability, T/C: 80.3%
[12]
  viability, T/C: 82.8%
[27]
  viability, T/C: 91.2%
[28]
  viability, T/C: 94.8%
[29]
  viability, T/C: 78.7%
[30]
  viability, T/C: 62.5%
[13]
  viability, T/C: 74.7%
[14]
  viability, T/C: 74.5%
[31]
  viability, T/C: 81.2%
[32]
  viability, T/C: 92.6%
[33]
  viability, T/C: 83.3%
[34]
  viability, T/C: 58.7%

## CCN1CCN(Cc2ccc(Nc3ncc(F)c(-c4cc(F)c5nc(C)n(C(C)C)c5c4)n3)nc2)CC1
Compound 0.00316 µM
  viability, T/C: 99.1% and 89.3% and 99.2%
Compound 0.01 µM
  viability, T/C: 103% and 87.3% and 82%
Compound 0.0316 µM
  viability, T/C: 96.3% and 101% and 86.1%
Compound 0.1 µM
  viability, T/C: 97.9% and 93.3% and 105%
Compound 0.316 µM
  viability, T/C: 96.8% and 101% and 92%
Compound 1 µM
  viability, T/C: 79.4% and 77.1% and 87.2%
Curve of compound
  IC50: > 1000 nM

## C=CC(=O)N1CCN(c2nc(=O)n(-c3c(C)ccnc3C(C)C)c3nc(-c4c(O)cccc4F)c(F)cc23)C(C)C1 (stereo not drawn) + Cc1c(S(C)(=O)=O)c(-c2cc(F)cc(N3CCN(c4ccc(NS(=O)(=O)c5ccc(NC(CCN6CCC(C(=O)OCCCP(=O)(O)O)CC6)CSc6ccccc6)c(S(=O)(=O)C(F)(F)F)c5)cc4)CC3)c2)c(-c2ccc(Cl)cc2)n1C(C)C
[1]
  IC50: > 10000 nM
[2]
  IC50: > 10000 nM
[3]
  IC50: > 10000 nM
[4]
  IC50: 6360 nM
[5]
  IC50: 2980 nM
[6]
  IC50: 1350 nM
[7]
  viability, T/C: 83.2%
[8]
  viability, T/C: 84.6%
[19]
  viability, T/C: 95%
[20]
  viability, T/C: 98.9%
[21]
  viability, T/C: 94.9%
[22]
  viability, T/C: 65.8%
[9]
  viability, T/C: 87.3%
[10]
  viability, T/C: 93.9%
[23]
  viability, T/C: 93.6%
[24]
  viability, T/C: 107%
[25]
  viability, T/C: 95.8%
[26]
  viability, T/C: 63%
[11]
  viability, T/C: 83.7%
[12]
  viability, T/C: 82.5%
[27]
  viability, T/C: 80.1%
[28]
  viability, T/C: 99.9%
[29]
  viability, T/C: 87.1%
[30]
  viability, T/C: 59.9%
[13]
  viability, T/C: 82.3%
[14]
  viability, T/C: 75.9%
[31]
  viability, T/C: 81%
[32]
  viability, T/C: 73.5%
[33]
  viability, T/C: 70.5%
[34]
  viability, T/C: 37.1%
[15]
  viability, T/C: 66.6%
[16]
  viability, T/C: 63%
Second compound 3.16 µM, first compound 0.316 µM
  viability, T/C: 62.6%
Second compound 3.16 µM, first compound 1 µM
  viability, T/C: 63.4%
Second compound 3.16 µM, first compound 3.16 µM
  viability, T/C: 49.3%
Second compound 3.16 µM, first compound 10 µM
  viability, T/C: 36%
[17]
  viability, T/C: 55.9%
[18]
  viability, T/C: 53%
Second compound 10 µM, first compound 0.316 µM
  viability, T/C: 60.1%
Second compound 10 µM, first compound 1 µM
  viability, T/C: 52.4%
Second compound 10 µM, first compound 3.16 µM
  viability, T/C: 40.8%
Second compound 10 µM, first compound 10 µM
  viability, T/C: 30.6%
